In US10072014B2 (Janssen Pharmaceutica NV, priority 2014, dated 2018):

What was measured:
rats = assay: Reversal of the effect of the mGluR2 PAM JNJ-42153605-induced inhibition of scopolamine-induced hyperlocomotion; format: in vivo; details: Rattus norvegicus, PO, criterion for reversal: total distance >1500 cm, read-out: ED50 SCOP JNJ-42153605
Experimental: 2) Reversal of the Effect of the mGluR2 PAM JNJ-42153605-induced Inhibition of Scopolamine-induced Hyperlocomotion Apparatus
Motor activity was measured in microprocessor-based motor activity arenas (closed gray PVC cylinders with a height of 39 cm and a diameter of 31 cm). Each arena was placed on an infrared LED (8×8 LEDs) lit box (white PVC squared box; 40×40 cm^2; height 12.5 cm. An infrared-sensitive tube camera and a white light source were mounted to the ceiling above the observation chamber to track the animal. The total distance traveled (cm) was recorded and analyzed using the Noldus Ethovision XT Video Tracking System (Version 7.0.418; Noldus, Wageningen, The Netherlands). The intensity of the light within the activity cages (measured in the centre at the level of the floor) ranged between 4 and 8 LUX.
The rats were pretreated with test compound or vehicle at 60 min before the start of the activity recordings and placed into individual cages. The rats were challenged with JNJ-42153605 (3-(cyclopropylmethyl)-7-(4-phenylpiperidin-1-yl)-8-(trifluoromethyl)-[1,2,4]triazolo[4,3-a]pyridine; WO2010/130424; Cid et al. J. Med. Chem. 2012, 55, 8770-8789) (20 mg/kg, i.v.) 30 min before the start of the activity recording combined with scopolamine (0.16 mg/kg, i.v.) just before the start of the activity measurements. Immediately after the injection of scopolamine, the rats were placed into the activity monitors and total distance traveled over the first 30 min was measured.
Solvent-pretreated Control Rats.
Animals receiving the combination of JNJ-42153605 and scopolamine (n=433) almost always traveled a distance of less than 1500 cm (<1500 cm) (only 2.5% of the control rats traveled a distance of more than 1500 cm (>1500 cm)). On the other hand, animals challenged with scopolamine alone (n=215) always traveled a total distance of more than 1500 cm (>1500 cm) and almost always (in 95.8% of the rats) a distance of more than 4400 cm (>4400 cm). […] For reversal of the inhibitory effect of JNJ-42153605 on the scopolamine-induced hyperlocomotion, the following all-or-none criteria were adopted: (1) reversal: total distance>1500 cm.

human mGlu2 receptor = target: T1, human mGlu2 receptor (Homo sapiens, UniProt Q14416); assay: [35S]GTPγS binding assay, negative allosteric modulation of mGluR2; format: biochemical; details: for Emax: maximal % inhibition relative to the control glutamate response (EC80 glutamate), read-out: GTPγS-hmGluR2 anGT Emax; for IC50: membranes from CHO cells transfected with human mGlu2 receptor, glutamate 60 μM (~EC80), read-out: GTPγS-hmGluR2 anGT pIC50 (converted)
T1 construct: expressed in transfected cells; host or cells: CHO cells
T1 sequence (Q14416 19-872): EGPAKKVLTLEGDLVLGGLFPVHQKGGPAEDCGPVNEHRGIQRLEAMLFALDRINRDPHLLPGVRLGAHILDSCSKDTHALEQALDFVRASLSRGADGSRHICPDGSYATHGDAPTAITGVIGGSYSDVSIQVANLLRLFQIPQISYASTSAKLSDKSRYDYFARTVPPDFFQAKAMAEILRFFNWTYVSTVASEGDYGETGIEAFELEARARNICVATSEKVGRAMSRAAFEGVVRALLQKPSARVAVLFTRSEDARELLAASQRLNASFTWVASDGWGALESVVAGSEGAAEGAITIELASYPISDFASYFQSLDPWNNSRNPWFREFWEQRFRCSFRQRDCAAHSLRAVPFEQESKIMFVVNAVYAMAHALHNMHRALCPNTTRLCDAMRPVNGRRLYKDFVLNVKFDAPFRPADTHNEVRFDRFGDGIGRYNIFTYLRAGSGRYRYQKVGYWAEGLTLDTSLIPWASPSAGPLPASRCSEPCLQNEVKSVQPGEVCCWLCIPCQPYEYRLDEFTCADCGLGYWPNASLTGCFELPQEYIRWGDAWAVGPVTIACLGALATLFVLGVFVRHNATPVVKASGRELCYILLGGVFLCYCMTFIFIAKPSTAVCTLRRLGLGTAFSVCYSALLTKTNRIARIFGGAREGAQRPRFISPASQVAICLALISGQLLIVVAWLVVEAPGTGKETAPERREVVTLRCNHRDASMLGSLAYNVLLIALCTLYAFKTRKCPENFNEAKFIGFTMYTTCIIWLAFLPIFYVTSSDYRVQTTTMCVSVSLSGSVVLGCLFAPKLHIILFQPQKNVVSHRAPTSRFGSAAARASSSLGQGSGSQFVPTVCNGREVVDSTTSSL
Excerpt: The compounds provided in the present invention are negative allosteric modulators of mGluR2. These compounds appear to inhibit glutamate responses by binding to an allosteric site other than the glutamate binding site. The response of mGluR2 to a concentration of glutamate is decreased when compounds of Formula (I) are present. Compounds of Formula (I) are expected to have their effect substantially at mGluR2 by virtue of their ability to reduce the function of the receptor. The effects of negative allosteric modulators tested at mGluR2 using the [^35S]GTPγS binding assay method described below and which is suitable for the identification of such compounds, and more particularly the compounds according to Formula (I), are shown in Table 7.
1) [^35S]GTPγS Binding Assay
The [^35S]GTPγS binding assay is a functional membrane-based assay used to study G-protein coupled receptor (GPCR) function whereby incorporation of a non-hydrolysable form of GTP, [^35S]GTPγS (guanosine 5′-triphosphate, labelled with […] ^35S), is measured. The G-protein a subunit catalyzes the exchange of guanosine 5′-diphosphate (GDP) by guanosine triphosphate (GTP) and on activation of the GPCR by an agonist, [^35S]GTPγS, becomes incorporated and cannot be cleaved to continue the exchange cycle (Harper (1998) Current Protocols in Pharmacology 2.6.1-10, John Wiley & Sons, Inc.). […] Here we describe the use of the [^35S]GTPγS binding assay using membranes from cells transfected with the human mGlu2 receptor and adapted from Schaffhauser et al. (Molecular Pharmacology, 2003, […]) for the detection of the negative allosteric modulation (NAM) properties of the compounds of this invention.
CHO-cells were cultured to pre-confluence and stimulated with 5 mM butyrate for 24 h. Cells were then collected by scraping in PBS and cell suspension was centrifuged (10 min at 4000 RPM in benchtop centrifuge). Supernatant was discarded and pellet gently resuspended in 50 mM Tris-HCl, pH 7.4 by mixing with an Ultra Turrax homogenizer. The suspension was centrifuged at 12,400 RPM (Sorvall F14S-6x250Y) for 10 minutes and the supernatant discarded. The pellet was homogenized in 5 mM Tris-HCl, pH 7.4 using an Ultra Turrax homogenizer and centrifuged again (13,000 RPM, 20 min, 4° C.). The final pellet was resuspended in 50 mM Tris-HCl, pH 7.4 and stored at −80° C. in appropriate aliquots before use. Protein concentration was determined by the Bradford method (Bio-Rad, USA) with bovine serum albumin as standard.
[^35S]GTPγS Binding Assay
Measurement of mGluR2 negative allosteric modulatory activity of test compounds was performed as follows. Test compounds and glutamate were diluted in assay buffer containing 10 mM HEPES acid, 10 mM HEPES salt, pH 7.4, 100 mM NaCl, 3 mM MgCl2 and 10 μM GDP. Human mGlu2 receptor-containing membranes were thawed on ice and diluted in assay buffer supplemented with 18 μg/ml saponin. Membranes were pre-incubated with compound together with a predefined (˜EC80) concentration of glutamate (60 μM) for 30 min at 30° C. After addition of [^35S]GTPγS (f.c. 0.1 nM), assay mixtures were shaken briefly and further incubated to allow [^35S]GTPγS incorporation on activation (30 minutes, 30° C.). Final assay mixtures contained 7 μg of membrane protein in 10 mM HEPES acid, 10 mM HEPES salt, pH 7.4, 100 mM NaCl, 3 mM MgCl2, 10 μM GDP and 10 μg/ml saponin. Total reaction volume was 200 μl. Reactions were terminated by rapid filtration through Unifilter-96 GF/B plates (Perkin Elmer, Massachusetts, USA) using a 96-well filtermate universal harvester. Filters were washed 6 times with ice-cold 10 mM NaH2PO4/10 mM Na2HPO4, pH 7.4. Filters were then air-dried, and 30 μl of liquid scintillation cocktail (Microscint-O) was added to each well. Membrane-bound radioactivity was counted in a Topcount.
The concentration-response curves of representative compounds of the present invention were generated using the Lexis software interface (developed at J&J). […]

Wiga Wistar rats = assay: Reversal of LY-404039-induced decrease of palpebral opening in apomorphine-challenged rats; format: in vivo; details: Rattus norvegicus, PO, criterion: cumulative palpebral opening score >26, read-out: ED50 APO LY-404039
Experimental: B) In Vivo Pharmacology 1) Reversal of LY-404039-induced Decrease of Palpebral Opening in Apomorphine-challenged Rats.
Male Wiga Wistar rats (Crl:WI; Charles River Germany; 220±40 g) were housed under standard laboratory conditions (21±2° C.; 50-65% relative humidity; light-dark cycle set at 12 h; lights on at 6.00 h) and fasted overnight prior to the start of the experiments (tap water remained available ad libitum). During the test period, they were housed in individual cages. Palpebral opening was scored every 5 min over the first hour after injection of apomorphine (1.0 mg/kg, i.v.) in animals either pretreated or not pretreated with LY-404039 (2.5 mg/kg, s.c.) at 1 h prior to the apomorphine injection. The animals were also pretreated with test compound or solvent at a predefined interval before apomorphine challenge. The score system was: (5) exophthalmos, (4) wide open, (3) open for three-quarters, (2) half open, (1) open for one-quarter, (0) closed. The scores for palpebral opening were cumulated over the 60-min observation period. A cumulative palpebral opening score>26 was selected for drug-induced reversal of the LY-404039-induced decrease of palpebral opening (occurrence in 3.2% of control animals pretreated with LY-404039 (n=154) versus in 99.5% of control rats not pretreated with LY-404039 (n=6335)). […]

| melting point [°C] | Emax (human mGlu2 receptor) [%] | IC50 (human mGlu2 receptor) [nM] | SMILES | ED50 (rats) [mg/kg] | ED50 (Wiga Wistar rats) [mg/kg] |
| --- | --- | --- | --- | --- | --- |
| 146.2 | 108 | 5.75 | Cc1cc(N2C[C@H](C)n3ncc(-c4[nH]c(C5CC5)nc4C)c3C2=O)ccc1C(F)(F)F [Compound 21] | > 0.63 | – |
| – | 106 | 2 | C[C@H]1CN(c2ccc(C(F)(F)F)c(Cl)c2)C(=O)c2c(-c3c[nH]c(C4CC4)n3)cnn21 [Compound 25] | 0.726 | 0.79 |
| 160.38 | 111 | 2.69 | CC(C)c1nc(-c2cnn3c2C(=O)N(c2ccc(C(F)(F)F)c(Cl)c2)C[C@@H]3C)c[nH]1 [Compound 26] | 1.99 | – |
| 158.23 | 111 | 3.72 | Cc1nc(C2CC2)[nH]c1-c1cnn2c1C(=O)N(c1ccc(C(F)(F)F)c(Cl)c1)C[C@@H]2C [Compound 28] | > 0.63 | – |
| 270.45 | 109 | 6.31 | Cc1nc(C)c(-c2cnn3c2C(=O)N(c2ccc(C(F)(F)F)c(Cl)c2)C[C@@H]3C)[nH]1.Cl [Compound 30] | 1.99 | – |

Second part, the molecule before the results:

| SMILES | melting point [°C] | Emax (human mGlu2 receptor) [%] | IC50 (human mGlu2 receptor) [nM] | ED50 (rats) [mg/kg] | ED50 (Wiga Wistar rats) [mg/kg] |
| --- | --- | --- | --- | --- | --- |
| Cc1nc(-c2cnn3c2C(=O)N(c2ccc(C(F)(F)F)cc2)C[C@@H]3C)c[nH]1 [Compound 4] | 167.9 | 104 | 25.7 | > 2.5 | – |
| C[C@H]1CN(c2ccc(C(F)(F)F)cc2)C(=O)c2c(-c3c[nH]c(-c4ccc(N)nc4)n3)cnn21 [Compound 11] | 276.61 | 109 | 55 | > 0.63 | – |
| Cc1[nH]c(-c2ccc(N)nc2)nc1-c1cnn2c1C(=O)N(c1ccc(C(F)(F)F)cc1)C[C@@H]2C [Compound 16] | 215.62 | 108 | 186 | > 0.63 | – |
| C[C@H]1CN(c2ccc(Cl)c(Cl)c2)C(=O)c2c(-c3c[nH]c(-c4ccccn4)n3)cnn21 [Compound 18] | 278.31 | 110 | 9.12 | > 0.63 | – |
| Cc1cc(N2C[C@H](C)n3ncc(-c4c[nH]c(-c5ccccn5)n4)c3C2=O)ccc1C(F)(F)F [Compound 22] | 140.5 | 110 | 16.2 | > 0.63 | – |
| C[C@H]1CN(c2ccc(C(F)(F)F)c(Cl)c2)C(=O)c2c(-c3c[nH]c(C(N)=O)n3)cnn21 [Compound 31] | 269.95 | 107 | 10.2 | > 0.63 | – |
| Cc1[nH]c(-c2cccnc2)nc1-c1cnn2c1C(=O)N(c1ccc(C(F)(F)F)c(Cl)c1)C[C@@H]2C [Compound 32] | 269.39 | 109 | 15.5 | > 0.63 | – |
| C[C@H]1CN(c2ccc(C(F)(F)F)c(Cl)c2)C(=O)c2c(-c3c[nH]c(-c4ccc(N)nc4)n3)cnn21 [Compound 33] | 286.55 | 106 | 16.2 | > 0.63 | – |
| Cc1[nH]c(-c2ccc(N)nc2)nc1-c1cnn2c1C(=O)N(c1ccc(C(F)(F)F)c(Cl)c1)C[C@@H]2C [Compound 34] | 280.85 | 109 | 30.9 | > 0.63 | – |
